Patent US10745377B2, “Piperidine or piperazine linked imidazole and triazole derivatives and methods of use” (MERCK SHARP & DOHME CORP., priority 2013, dated 2020)

Tests used:
Type in all cases: biochemical
CYP3A4 = molecular target: T1, CYP3A4 (Homo sapiens, UniProt P08684); test: Cocktail assay for CYPs in human liver microsomes: CYP3A4 (midazolam 1′-hydroxylation); conditions: human liver microsomes 0.1 mg/mL, 2 μM midazolam, 10 min at 37° C., 6 concentrations up to 10 μM; read-out: IC50 (nM) CYP3A4
T1 construct: 0.1 mg/mL protein human liver microsomes (BD Gentest); tissue BD Gentest; host or cells: human liver microsomes
T1 sequence (P08684 whole entry): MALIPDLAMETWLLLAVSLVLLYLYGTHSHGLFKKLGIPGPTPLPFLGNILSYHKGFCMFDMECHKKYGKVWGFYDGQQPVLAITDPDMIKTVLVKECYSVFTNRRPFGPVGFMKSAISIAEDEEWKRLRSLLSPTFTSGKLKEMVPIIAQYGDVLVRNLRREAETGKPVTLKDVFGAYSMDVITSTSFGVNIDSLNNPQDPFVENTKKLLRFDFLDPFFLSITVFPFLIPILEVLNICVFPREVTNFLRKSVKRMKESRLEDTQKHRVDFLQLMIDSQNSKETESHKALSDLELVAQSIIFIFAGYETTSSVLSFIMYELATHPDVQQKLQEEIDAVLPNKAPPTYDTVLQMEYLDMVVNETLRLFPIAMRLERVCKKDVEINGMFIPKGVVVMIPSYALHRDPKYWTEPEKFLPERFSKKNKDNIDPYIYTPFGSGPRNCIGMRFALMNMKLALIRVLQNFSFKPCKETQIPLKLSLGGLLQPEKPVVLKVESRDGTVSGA

CYP1A2 = molecular target: T2, CYP1A2 (Homo sapiens, UniProt P05177); test: Cocktail assay for CYPs in human liver microsomes: CYP1A2 (phenacetin O-deethylation); conditions: human liver microsomes 0.1 mg/mL, 10 μM phenacetin, 10 min at 37° C., 6 concentrations up to 10 μM; read-out: IC50 (nM) CYP1A2
T2 construct: 0.1 mg/mL protein human liver microsomes (BD Gentest); tissue BD Gentest; host or cells: human liver microsomes
T2 sequence (P05177 1-516): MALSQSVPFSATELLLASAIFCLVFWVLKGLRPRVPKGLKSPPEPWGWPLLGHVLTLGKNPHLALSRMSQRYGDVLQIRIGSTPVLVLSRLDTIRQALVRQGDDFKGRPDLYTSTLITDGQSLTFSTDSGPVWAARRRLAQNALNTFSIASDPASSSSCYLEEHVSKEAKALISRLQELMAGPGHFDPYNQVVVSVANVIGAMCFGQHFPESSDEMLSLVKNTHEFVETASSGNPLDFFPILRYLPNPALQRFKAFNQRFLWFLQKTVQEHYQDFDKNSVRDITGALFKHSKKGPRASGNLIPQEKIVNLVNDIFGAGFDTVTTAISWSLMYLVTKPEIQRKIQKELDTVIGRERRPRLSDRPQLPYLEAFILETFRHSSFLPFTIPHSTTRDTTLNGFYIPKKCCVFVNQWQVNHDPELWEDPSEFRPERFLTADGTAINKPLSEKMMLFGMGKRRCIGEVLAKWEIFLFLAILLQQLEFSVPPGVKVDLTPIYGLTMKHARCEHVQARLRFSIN

CYP2C9 = molecular target: T3, CYP2C9 (Homo sapiens, UniProt P11712); test: Cocktail assay for CYPs in human liver microsomes: CYP2C9 (diclofenac 4′-hydroxylation); conditions: human liver microsomes 0.1 mg/mL, 5 μM diclofenac, 10 min at 37° C., 6 concentrations up to 10 μM; read-out: IC50 (nM) CYP2C9
T3 construct: 0.1 mg/mL protein human liver microsomes (BD Gentest); tissue BD Gentest; host or cells: human liver microsomes
T3 sequence (P11712 whole entry): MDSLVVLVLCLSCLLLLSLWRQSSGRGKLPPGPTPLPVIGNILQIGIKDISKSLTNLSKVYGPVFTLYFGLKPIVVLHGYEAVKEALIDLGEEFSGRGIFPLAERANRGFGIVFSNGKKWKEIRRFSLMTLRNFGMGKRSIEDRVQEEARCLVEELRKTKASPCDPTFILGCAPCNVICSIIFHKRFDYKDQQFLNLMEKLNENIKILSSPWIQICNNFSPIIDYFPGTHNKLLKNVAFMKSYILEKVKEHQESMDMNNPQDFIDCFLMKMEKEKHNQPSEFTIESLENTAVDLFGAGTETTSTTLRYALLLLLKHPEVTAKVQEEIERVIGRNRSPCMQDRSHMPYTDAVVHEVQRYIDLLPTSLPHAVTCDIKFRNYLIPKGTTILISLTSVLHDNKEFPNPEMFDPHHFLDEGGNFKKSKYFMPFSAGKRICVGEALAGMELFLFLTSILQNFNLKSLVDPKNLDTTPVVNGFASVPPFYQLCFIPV

CYP2C19 = molecular target: T4, CYP2C19 (Homo sapiens, UniProt P33261); test: Cocktail assay for CYPs in human liver microsomes: CYP2C19 (mephenytoin 4′-hydroxylation); conditions: human liver microsomes 0.1 mg/mL, 30 μM mephenytoin, 10 min at 37° C., 6 concentrations up to 10 μM; read-out: IC50 (nM) CYP2C19
T4 construct: 0.1 mg/mL protein human liver microsomes (BD Gentest); tissue BD Gentest; host or cells: human liver microsomes
T4 sequence (P33261 whole entry): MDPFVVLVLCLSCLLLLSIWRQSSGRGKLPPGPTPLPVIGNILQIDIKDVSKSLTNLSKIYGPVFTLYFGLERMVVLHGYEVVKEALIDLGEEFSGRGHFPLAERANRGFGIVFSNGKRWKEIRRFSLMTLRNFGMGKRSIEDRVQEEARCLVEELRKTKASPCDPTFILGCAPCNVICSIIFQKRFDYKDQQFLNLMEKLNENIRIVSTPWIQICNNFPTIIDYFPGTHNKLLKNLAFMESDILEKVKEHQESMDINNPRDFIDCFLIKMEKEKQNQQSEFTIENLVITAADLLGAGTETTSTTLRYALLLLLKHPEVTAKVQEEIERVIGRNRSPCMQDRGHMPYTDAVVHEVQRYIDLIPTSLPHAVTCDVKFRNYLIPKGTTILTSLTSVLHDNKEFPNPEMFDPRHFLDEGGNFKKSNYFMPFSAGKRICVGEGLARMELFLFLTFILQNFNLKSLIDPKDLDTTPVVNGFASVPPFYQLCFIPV

CYP2D6 = molecular target: T5, CYP2D6 (Homo sapiens, UniProt P10635); test: Cocktail assay for CYPs in human liver microsomes: CYP2D6 (dextromethorphan O-demethylation); conditions: human liver microsomes 0.1 mg/mL, 5 μM dextromethorphan, 10 min at 37° C., 6 concentrations up to 10 μM; read-out: IC50 (nM) CYP2D6
T5 construct: 0.1 mg/mL protein human liver microsomes (BD Gentest); tissue BD Gentest; host or cells: human liver microsomes
T5 sequence (P10635 whole entry): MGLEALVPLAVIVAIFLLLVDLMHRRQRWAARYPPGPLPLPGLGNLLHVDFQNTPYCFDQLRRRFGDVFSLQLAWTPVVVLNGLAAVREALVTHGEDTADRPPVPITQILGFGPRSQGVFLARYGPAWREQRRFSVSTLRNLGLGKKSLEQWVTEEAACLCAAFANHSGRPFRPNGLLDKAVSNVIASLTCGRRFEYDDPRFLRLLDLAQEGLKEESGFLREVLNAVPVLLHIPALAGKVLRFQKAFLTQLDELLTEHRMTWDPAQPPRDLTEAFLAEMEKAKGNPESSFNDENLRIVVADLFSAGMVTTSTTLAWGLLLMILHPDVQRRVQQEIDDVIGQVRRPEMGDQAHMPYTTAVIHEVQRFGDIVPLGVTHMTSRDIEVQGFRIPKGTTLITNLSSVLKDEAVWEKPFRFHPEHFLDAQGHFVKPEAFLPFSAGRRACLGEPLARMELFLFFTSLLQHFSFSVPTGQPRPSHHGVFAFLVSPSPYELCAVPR

SMILES	IC50 (CYP3A4)	IC50 (CYP1A2)	IC50 (CYP2C9)	IC50 (CYP2C19)	IC50 (CYP2D6)
CCS(=O)(=O)c1cnc(N2CCN(Cc3cncn3[C@H](C)Cc3ccc(F)cc3)CC2)s1 [Compound 40, (R)-5-(ethylsulfonyl)-2-(4-((1-(1-(4-fluorophenyl)propan-2-yl)-1H-imidazol-5-yl)methyl)piperazin-1-yl)thiazole]	27 nM	> 10000 nM	> 10000 nM	> 10000 nM	5260 nM
CCS(=O)(=O)CCc1cnc(N2CCN(Cc3cncn3[C@H](C)Cc3ccc(F)cc3)CC2)s1 [Compound 41, (R)-5-(2-(ethylsulfonyl)ethyl)-2-(4-((1-(1-(4-fluorophenyl)propan-2-yl)-1H-imidazol-5-yl)methyl)piperazin-1-yl)thiazole]	30 nM	> 10000 nM	2700 nM	2230 nM	2380 nM
CCS(=O)(=O)CCc1cnc(N2CCN(Cc3cncn3[C@H](C)c3ccc(Cl)cc3)CC2)s1 [Compound 42, (R)-2-(4-((1-(1-(4-chloro-phenyl)ethyl)-1H-imidazol-5-yl)methyl)piperazin-1-yl)-5-(2-(ethyl-sulfonyl)ethyl)thiazole]	22 nM	> 10000 nM	> 10000 nM	2400 nM	1660 nM
CCS(=O)(=O)CCc1cnc(N2CCN(Cc3cncn3[C@H](C)c3ccc(F)cc3)CC2)s1 [Compound 43, (R)-2-(4-((1-(1-(4-fluoro-phenyl)ethyl)-1H-imidazol-5-yl)methyl)piperazin-1-yl)-5-(2-(ethyl-sulfonyl)ethyl) thiazole]	50 nM	> 10000 nM	> 10000 nM	4010 nM	2950 nM
C[C@H](c1ccc(C#N)cc1)n1cncc1CN1CCN(c2ccccc2)C(C(=O)NC(C)(C)C)C1 (stereo partly drawn) [Compound 44, N-(tert-butyl)-4-((1-((R)-1-(4-cyanophenyl)ethyl)-1H-imidazol-5-yl)methyl)-1-phenylpiperazine-2-carboxamide]	29 nM	> 10000 nM	5090 nM	5840 nM	> 10000 nM
C[C@H](c1ccc(C#N)cc1)n1cncc1CN1CCN(c2ccccc2)C(C(=O)N2CCOCC2)C1 (stereo partly drawn) [Compound 46, 4-((1R)-1-(5-((3-(morpholine-4-carbonyl)-4-phenylpiperazin-1-yl)methyl)-1H-imidazol-1-yl)ethyl) benzonitrile]	46 nM	> 10000 nM	> 10000 nM	> 10000 nM	> 10000 nM
C[C@H](c1ccc(C#N)cc1)n1cncc1CN1CCN(c2ccccc2)C(C(=O)N2CCC(F)(F)CC2)C1 (stereo partly drawn) [Compound 47, 4-((1R)-1-(5-((3-(4,4-difluoropiperidine-1-carbonyl)-4-phenylpiperazin-1-yl)methyl)-1H-imidazol-1-yl)ethyl) benzonitrile]	20 nM	> 10000 nM	9270 nM	7830 nM	> 10000 nM
C[C@H](c1ccc(F)cc1)n1cncc1CN1CCN(c2ccccc2)[C@H](C(=O)N2CCCCC2)C1 [Compound 48]	31 nM	> 10000 nM	1470 nM	2000 nM	4890 nM
CC(=O)N1CCN(Cc2cncn2[C@H](C)c2ccc(F)cc2)CC1c1ccccc1 (stereo partly drawn) [Compound 51, 1-(4-((1-((R)-1-(4-fluorophenyl)ethyl)-1H-imidazol-5-yl)methyl)-2-phenylpiperazin-1-yl)ethanone]	22 nM	> 10000 nM	> 10000 nM	> 10000 nM	> 10000 nM
CC1CN(Cc2cncn2C(C)C2CCOCC2)CC(C)N1C(=O)C1(C)CC1 (stereo not drawn) [Compound 56, (2,6-dimethyl-4-((1-(1-(tetrahydro-2H-pyran-4-yl)ethyl)-1H-imidazol-5-yl)methyl)piperazin-1-yl)(1-methylcyclopropyl) methanone]	35 nM	> 10000 nM	> 10000 nM	> 10000 nM	7160 nM
CC(=O)N1CCN(Cc2cncn2C(C)c2ccccc2-c2ccc(F)cc2)CC1 (stereo not drawn) [Compound 60, 1-(4-((1-(1-(4′-fluoro-[1,1′-biphenyl]-2-yl)ethyl)-1H-imidazol-5-yl)methyl)piperazin-1-yl)ethanone]	23 nM	> 10000 nM	> 10000 nM	> 10000 nM	4500 nM
C[C@H](c1ccc(F)cc1)n1cncc1CN1CCN(Cc2ccccc2)C(=O)C1 [Compound 61, (R)-1-benzyl-4-((1-(1-(4-fluorophenyl)ethyl)-1H-imidazol-5-yl)methyl)piperazin-2-one]	23 nM	> 10000 nM	> 10000 nM	1620 nM	2520 nM
C[C@H](c1ccc(F)cc1)n1cncc1CN1CCN(Cc2ccccc2Cn2cncn2)C(=O)C1 [Compound 62, (R)-1-(2-((1H-1,2,4-triazol-1-yl)methyl)benzyl)-4-((1-(1-(4-fluorophenyl)ethyl)-1H-imidazol-5-yl)methyl) piperazin-2-one]	43 nM	6940 nM	6210 nM	1140 nM	5640 nM
C[C@H](c1ccc(F)cc1)n1cncc1CN1CCN(Cc2cn3ccccc3n2)C(=O)C1 [Compound 63, (R)-4-((1-(1-(4-fluorophenyl)ethyl)-1H-imidazol-5-yl)methyl)-1-(imidazo[1,2-a]pyridin-2-ylmethyl)piperazin-2-one]	46 nM	≥ 10000 nM	> 10000 nM	> 10000 nM	> 10000 nM

The next molecules have a lower IC50 (CYP3A4) than those just listed; values first:

IC50 (CYP3A4)	IC50 (CYP1A2)	IC50 (CYP2C9)	IC50 (CYP2C19)	IC50 (CYP2D6)	SMILES
14 nM	> 10000 nM	1810 nM	2110 nM	> 10000 nM	Cc1cc(C(=O)N2CCN(Cc3cncn3[C@H](C)c3ccc(F)cc3)CC2c2ccccc2)no1 (stereo partly drawn) [Compound 49, (4-((1-((R)-1-(4-fluorophenyl)ethyl)-1H-imidazol-5-yl)methyl)-2-phenylpiperazin-1-yl)(5-methylisoxazol-3-yl)methanone]
13 nM	> 10000 nM	6120 nM	> 10000 nM	9840 nM	C[C@H](c1ccc(F)cc1)n1cncc1CN1CCN(C(=O)c2ccccn2)C(c2ccccc2)C1 (stereo partly drawn) [Compound 53]
14 nM	> 10000 nM	2860 nM	3350 nM	> 10000 nM	CC1CN(Cc2cncn2[C@H](C)c2ccc(F)cc2)CC(C)N1C(=O)C1(C)CC1 (stereo partly drawn) [Compound 54, (4-((1-((R)-1-(4-fluorophenyl)ethyl)-1H-imidazol-5-yl)methyl)-2,6-dimethylpiperazin-1-yl)(1-methylcyclopropyl) methanone]
10 nM	> 10000 nM	2970 nM	2390 nM	8030 nM	C[C@H](c1ccc(F)cc1)n1cncc1CN1CCN(C(=O)c2ccccc2)C(C(C)(C)C)C1 (stereo partly drawn) [Compound 55, (2-(tert-butyl)-4-((1-((R)-1-(4-fluorophenyl)ethyl)-1H-imidazol-5-yl)methyl)piperazin-1-yl)(phenyl) methanone]
5 nM	> 10000 nM	2810 nM	2640 nM	2450 nM	C[C@H](c1ccc(F)cc1)n1cncc1CN1CCN(C(=O)C2(C)CC2)C(c2ccc(N(C)C)cc2)C1 (stereo partly drawn) [Compound 57, (2-(4-(dimethylamino)phenyl)-4-((1-((R)-1-(4-fluorophenyl)ethyl)-1H-imidazol-5-yl)methyl)piperazin-1-yl)(1-methylcyclopropyl) methanone]
7 nM	> 10000 nM	2570 nM	> 10000 nM	> 10000 nM	CC1CN(Cc2cncn2[C@H](C)c2ccc(C#N)cc2)CC(C)N1C(=O)C1CC(F)(F)C1 (stereo partly drawn) [Compound 58, 4-((1R)-1-(5-((4-(3,3-difluorocyclo-butanecarbonyl)-3,5-dimethylpiperazin-1-yl)methyl)-1H-imidazol-1-yl)ethyl)benzonitrile]
9 nM	> 10000 nM	6480 nM	3360 nM	2210 nM	CC(c1ccccc1-c1ccc(F)cc1)n1cncc1CN1CCN(C(=O)c2ccccc2)CC1 (stereo not drawn) [Compound 59, (4-((1-(1-(4′-fluoro-[1,1′-biphenyl]-2-yl)ethyl)-1H-imidazol-5-yl)methyl)piperazin-1-yl)(phenyl) methanone]
